Results: ChEMBL document CHEMBL5226343, “Structure-Activity Relationship of USP5 Inhibitors” (J Med Chem, 2021)
pEC50, pKd: −log10 of the molar value.

Columns and labels:
[1] = biological target: T1, Protein deacetylase HDAC6 (Homo sapiens, UniProt Q9UBN7)
T1 sequence (Q9UBN7 whole entry): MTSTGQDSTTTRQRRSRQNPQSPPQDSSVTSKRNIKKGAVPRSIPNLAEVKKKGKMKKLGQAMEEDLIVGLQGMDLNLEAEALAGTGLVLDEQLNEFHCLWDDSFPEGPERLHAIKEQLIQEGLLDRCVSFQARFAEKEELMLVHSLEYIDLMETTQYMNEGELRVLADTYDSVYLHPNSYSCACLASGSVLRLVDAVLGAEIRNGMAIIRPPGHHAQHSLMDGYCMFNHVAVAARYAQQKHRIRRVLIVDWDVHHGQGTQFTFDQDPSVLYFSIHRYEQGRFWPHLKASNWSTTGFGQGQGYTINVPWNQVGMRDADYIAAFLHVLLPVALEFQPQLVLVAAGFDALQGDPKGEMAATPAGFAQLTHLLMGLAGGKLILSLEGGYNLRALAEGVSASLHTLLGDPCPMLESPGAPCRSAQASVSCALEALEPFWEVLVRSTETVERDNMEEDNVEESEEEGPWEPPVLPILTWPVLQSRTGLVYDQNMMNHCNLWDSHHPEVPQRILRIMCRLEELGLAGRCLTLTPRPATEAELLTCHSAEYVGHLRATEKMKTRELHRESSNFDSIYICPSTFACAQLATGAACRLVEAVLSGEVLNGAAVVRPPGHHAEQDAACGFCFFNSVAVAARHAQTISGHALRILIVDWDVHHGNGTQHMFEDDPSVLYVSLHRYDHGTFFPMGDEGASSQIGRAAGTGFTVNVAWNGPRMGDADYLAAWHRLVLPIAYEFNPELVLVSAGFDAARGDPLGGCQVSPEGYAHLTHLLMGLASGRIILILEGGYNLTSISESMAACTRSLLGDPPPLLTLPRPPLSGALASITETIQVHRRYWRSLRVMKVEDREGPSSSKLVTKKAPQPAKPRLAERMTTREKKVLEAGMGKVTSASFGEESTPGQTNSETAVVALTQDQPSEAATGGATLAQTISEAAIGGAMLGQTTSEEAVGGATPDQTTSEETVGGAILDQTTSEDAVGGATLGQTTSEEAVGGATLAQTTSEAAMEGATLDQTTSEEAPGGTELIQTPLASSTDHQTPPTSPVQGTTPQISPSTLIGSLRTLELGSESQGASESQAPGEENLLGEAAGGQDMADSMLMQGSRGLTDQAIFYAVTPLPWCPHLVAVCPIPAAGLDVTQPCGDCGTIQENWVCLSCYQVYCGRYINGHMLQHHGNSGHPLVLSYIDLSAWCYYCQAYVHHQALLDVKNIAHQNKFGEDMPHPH

[2] = biological target: Ubiquitin carboxyl-terminal hydrolase isozyme L1 (Homo sapiens) (UniProt P09936); assay: Inhibition of UCH-L1 (unknown origin) at 2.5 uM
[3] = biological target: T2, Ubiquitin carboxyl-terminal hydrolase 5 (Homo sapiens) (UniProt P45974); assay: Inhibition of USP5 (unknown origin) at 2.5 uM
T2 sequence (whole entry): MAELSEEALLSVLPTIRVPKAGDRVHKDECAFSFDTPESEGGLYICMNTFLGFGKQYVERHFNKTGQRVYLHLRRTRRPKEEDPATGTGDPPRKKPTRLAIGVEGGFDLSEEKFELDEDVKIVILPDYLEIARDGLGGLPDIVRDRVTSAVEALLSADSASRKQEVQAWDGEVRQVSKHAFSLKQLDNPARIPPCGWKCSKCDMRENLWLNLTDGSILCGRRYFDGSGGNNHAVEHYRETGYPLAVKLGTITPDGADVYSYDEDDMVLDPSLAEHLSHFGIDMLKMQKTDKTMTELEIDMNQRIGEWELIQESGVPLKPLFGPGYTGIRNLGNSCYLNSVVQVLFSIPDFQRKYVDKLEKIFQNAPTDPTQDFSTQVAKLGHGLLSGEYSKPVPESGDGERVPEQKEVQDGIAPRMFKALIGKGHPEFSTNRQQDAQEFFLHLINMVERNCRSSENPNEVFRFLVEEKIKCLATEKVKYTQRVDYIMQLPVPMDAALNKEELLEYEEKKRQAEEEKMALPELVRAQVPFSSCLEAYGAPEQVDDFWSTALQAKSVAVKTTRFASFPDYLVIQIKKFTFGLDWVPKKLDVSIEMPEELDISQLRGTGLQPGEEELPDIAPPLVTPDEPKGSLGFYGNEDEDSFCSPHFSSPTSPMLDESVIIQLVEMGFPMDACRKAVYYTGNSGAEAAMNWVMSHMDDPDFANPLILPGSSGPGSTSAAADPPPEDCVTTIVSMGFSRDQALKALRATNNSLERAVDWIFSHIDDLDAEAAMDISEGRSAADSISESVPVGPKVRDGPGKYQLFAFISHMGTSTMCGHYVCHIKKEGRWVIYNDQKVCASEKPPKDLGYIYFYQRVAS

[4] = biological target: Ubiquitin carboxyl-terminal hydrolase 9X (Homo sapiens) (UniProt Q93008); assay: Inhibition of USP9X (unknown origin) at 2.5 uM
[5] = Metabolic stability of the compound in human liver microsomes assessed as parent compound remaining at 1 uM measured for 60 mins in presence of NADPH regenerating system by LC/MS analysis; format: ADME, Microsome; conditions: read-out: Stability
[6] = Metabolic stability of the compound in CD-1 mouse liver microsomes assessed as parent compound remaining at 1 uM measured after 60 mins in presence of NADPH regenerating system by LC/MS analysis; format: ADME, Microsome; conditions: read-out: Stability
[7] = biological target: T3, Ubiquitin carboxyl-terminal hydrolase 2 (Homo sapiens, UniProt O75604); assay: Inhibition of USP2 (unknown origin)
T3 sequence (O75604 whole entry): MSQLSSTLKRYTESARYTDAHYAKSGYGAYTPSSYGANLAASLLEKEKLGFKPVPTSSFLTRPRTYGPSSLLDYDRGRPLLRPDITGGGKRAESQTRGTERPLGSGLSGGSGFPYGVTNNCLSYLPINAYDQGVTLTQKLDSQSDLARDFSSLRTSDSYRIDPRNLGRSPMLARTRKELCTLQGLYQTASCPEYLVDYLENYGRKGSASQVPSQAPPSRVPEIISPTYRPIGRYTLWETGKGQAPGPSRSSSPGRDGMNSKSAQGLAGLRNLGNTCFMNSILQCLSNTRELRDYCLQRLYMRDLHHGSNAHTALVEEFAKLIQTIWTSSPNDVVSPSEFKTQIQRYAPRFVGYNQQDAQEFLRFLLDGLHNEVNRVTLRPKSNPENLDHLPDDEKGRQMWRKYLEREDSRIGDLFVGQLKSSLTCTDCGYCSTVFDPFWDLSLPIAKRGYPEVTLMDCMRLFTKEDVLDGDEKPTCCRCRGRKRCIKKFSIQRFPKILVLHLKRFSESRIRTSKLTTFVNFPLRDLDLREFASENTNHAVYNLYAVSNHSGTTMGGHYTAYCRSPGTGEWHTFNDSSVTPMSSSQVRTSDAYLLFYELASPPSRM

[8] = biological target: T4, Ubiquitin carboxyl-terminal hydrolase 4 (Homo sapiens, UniProt Q13107); assay: Inhibition of USP4 (unknown origin)
T4 sequence (Q13107 whole entry): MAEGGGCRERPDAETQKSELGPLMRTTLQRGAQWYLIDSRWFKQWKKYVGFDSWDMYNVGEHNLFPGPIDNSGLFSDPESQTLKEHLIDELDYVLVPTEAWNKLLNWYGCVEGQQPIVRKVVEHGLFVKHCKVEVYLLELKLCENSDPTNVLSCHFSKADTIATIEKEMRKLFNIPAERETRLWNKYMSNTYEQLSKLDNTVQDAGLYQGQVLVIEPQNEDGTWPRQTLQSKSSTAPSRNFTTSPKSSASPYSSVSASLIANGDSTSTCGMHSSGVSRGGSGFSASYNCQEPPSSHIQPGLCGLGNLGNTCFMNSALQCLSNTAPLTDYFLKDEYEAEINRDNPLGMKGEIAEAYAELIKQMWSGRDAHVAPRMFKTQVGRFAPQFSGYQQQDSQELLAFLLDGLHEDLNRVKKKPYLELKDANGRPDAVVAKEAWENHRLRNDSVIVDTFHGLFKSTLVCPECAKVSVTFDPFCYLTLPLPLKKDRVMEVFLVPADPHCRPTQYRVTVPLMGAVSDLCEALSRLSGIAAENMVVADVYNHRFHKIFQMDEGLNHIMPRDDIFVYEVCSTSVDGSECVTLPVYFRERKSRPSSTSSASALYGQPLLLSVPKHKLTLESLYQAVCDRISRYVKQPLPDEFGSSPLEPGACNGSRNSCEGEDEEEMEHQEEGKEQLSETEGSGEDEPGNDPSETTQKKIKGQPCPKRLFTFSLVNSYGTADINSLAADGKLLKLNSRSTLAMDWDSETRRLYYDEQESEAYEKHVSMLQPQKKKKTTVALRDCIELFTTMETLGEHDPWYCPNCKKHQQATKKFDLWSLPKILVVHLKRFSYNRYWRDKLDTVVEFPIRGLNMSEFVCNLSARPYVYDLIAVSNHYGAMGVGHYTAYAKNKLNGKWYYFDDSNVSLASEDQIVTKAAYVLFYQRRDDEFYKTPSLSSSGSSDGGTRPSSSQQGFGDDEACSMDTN

[9] = biological target: Ubiquitin carboxyl-terminal hydrolase 7 (Homo sapiens, UniProt Q93009); assay: Inhibition of USP7 (unknown origin)
[10] = biological target: T5, Ubiquitin carboxyl-terminal hydrolase 5 (Homo sapiens, UniProt P45974); assay: Inhibition of USP5 (unknown origin)
T5 sequence (P45974 whole entry): T2 sequence (whole entry)

[11] = biological target: T6, Ubiquitin carboxyl-terminal hydrolase 8 (Homo sapiens, UniProt P40818); assay: Inhibition of USP8 (unknown origin)
T6 sequence (P40818 whole entry): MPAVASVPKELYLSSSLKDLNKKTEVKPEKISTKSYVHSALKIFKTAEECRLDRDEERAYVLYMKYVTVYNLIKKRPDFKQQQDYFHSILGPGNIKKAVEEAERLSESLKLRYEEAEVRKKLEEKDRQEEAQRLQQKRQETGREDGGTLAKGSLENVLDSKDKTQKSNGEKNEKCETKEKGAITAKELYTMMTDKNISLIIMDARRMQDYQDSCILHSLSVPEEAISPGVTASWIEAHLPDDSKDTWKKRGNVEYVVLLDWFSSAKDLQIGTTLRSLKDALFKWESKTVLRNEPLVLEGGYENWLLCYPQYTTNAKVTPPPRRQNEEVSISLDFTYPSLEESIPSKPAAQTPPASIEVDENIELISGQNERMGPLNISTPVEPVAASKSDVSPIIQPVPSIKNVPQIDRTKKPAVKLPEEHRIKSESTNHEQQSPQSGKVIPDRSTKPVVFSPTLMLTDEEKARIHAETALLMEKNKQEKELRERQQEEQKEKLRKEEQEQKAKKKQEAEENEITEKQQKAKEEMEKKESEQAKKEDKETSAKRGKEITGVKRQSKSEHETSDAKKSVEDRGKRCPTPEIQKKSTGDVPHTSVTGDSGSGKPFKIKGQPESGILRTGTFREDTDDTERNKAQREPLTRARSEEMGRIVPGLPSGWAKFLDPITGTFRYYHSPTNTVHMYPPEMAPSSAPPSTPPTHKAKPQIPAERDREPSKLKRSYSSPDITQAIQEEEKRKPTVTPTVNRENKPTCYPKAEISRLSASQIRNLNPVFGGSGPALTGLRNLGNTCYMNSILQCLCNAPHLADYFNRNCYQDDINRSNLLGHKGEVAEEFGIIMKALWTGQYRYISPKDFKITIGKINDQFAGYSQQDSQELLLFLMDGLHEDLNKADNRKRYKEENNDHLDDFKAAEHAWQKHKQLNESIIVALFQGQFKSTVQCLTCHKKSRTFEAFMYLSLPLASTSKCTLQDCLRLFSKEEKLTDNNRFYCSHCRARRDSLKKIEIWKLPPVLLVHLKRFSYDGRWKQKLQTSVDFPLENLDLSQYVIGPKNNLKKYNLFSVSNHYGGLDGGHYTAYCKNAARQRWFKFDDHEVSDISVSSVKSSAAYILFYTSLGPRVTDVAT

Sequence of Ubiquitin carboxyl-terminal hydrolase 9X (Homo sapiens) (Q93008 whole entry): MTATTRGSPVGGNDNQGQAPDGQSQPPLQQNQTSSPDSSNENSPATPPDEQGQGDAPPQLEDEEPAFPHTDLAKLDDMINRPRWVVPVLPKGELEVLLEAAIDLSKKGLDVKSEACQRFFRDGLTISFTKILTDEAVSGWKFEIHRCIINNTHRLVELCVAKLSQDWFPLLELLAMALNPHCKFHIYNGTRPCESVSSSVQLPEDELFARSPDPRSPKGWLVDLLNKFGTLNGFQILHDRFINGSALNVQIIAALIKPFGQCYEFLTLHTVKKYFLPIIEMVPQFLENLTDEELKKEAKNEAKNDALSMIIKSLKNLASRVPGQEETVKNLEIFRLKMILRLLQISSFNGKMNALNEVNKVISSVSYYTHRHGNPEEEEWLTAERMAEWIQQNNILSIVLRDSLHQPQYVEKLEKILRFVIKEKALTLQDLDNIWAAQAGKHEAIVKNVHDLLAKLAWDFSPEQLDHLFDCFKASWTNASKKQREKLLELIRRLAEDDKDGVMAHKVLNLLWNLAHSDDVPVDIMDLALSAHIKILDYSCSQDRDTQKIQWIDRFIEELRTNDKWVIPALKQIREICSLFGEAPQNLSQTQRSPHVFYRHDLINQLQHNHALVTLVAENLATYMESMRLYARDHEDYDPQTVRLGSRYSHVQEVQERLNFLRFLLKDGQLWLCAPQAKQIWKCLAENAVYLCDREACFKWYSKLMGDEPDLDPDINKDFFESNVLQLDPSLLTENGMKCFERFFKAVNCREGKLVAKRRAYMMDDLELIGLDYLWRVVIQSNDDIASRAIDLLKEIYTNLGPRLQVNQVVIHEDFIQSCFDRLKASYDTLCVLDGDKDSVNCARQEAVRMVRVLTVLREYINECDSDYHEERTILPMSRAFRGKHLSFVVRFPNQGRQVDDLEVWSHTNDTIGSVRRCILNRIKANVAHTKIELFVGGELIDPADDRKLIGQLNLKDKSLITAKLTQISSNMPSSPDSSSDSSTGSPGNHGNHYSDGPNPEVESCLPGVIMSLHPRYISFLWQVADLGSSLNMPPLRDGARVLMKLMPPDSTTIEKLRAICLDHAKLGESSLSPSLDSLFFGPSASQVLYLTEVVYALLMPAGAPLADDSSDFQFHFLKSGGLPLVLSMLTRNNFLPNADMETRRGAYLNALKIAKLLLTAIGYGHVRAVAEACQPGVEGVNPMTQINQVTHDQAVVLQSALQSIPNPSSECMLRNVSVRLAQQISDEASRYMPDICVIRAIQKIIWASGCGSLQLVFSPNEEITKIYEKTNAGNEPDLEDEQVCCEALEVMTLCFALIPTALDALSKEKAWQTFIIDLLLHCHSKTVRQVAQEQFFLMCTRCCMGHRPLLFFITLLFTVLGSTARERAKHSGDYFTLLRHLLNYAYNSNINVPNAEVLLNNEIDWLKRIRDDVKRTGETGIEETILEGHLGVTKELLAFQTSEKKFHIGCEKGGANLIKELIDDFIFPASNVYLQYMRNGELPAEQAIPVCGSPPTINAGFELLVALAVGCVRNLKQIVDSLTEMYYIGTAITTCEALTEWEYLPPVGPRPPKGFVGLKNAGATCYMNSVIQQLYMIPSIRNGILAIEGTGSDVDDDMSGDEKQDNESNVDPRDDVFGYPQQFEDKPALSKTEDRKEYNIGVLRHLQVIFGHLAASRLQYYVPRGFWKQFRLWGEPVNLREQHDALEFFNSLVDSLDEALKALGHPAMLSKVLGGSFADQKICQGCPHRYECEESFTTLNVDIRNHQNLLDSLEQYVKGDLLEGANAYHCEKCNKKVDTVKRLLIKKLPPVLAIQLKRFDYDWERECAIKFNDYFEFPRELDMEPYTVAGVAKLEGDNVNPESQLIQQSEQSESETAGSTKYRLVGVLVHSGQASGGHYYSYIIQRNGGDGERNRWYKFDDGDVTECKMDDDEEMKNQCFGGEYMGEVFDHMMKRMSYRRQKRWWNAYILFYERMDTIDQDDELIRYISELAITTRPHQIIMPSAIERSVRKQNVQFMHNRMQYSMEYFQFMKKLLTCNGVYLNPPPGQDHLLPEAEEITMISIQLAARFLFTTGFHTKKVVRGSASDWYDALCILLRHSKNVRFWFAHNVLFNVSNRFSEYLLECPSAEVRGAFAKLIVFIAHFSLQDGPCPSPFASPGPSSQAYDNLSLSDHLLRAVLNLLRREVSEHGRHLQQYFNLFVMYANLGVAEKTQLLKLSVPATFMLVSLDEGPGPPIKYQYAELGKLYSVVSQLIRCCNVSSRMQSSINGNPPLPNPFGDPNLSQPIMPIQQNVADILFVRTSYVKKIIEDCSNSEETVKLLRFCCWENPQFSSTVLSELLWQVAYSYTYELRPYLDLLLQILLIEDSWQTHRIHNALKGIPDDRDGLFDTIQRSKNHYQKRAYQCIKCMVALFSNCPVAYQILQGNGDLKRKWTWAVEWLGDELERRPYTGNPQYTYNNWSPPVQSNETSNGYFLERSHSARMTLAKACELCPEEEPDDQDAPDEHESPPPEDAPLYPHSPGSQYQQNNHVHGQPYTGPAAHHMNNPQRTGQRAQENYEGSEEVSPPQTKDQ
Sequence of Ubiquitin carboxyl-terminal hydrolase isozyme L1 (Homo sapiens) (P09936 whole entry, looked up): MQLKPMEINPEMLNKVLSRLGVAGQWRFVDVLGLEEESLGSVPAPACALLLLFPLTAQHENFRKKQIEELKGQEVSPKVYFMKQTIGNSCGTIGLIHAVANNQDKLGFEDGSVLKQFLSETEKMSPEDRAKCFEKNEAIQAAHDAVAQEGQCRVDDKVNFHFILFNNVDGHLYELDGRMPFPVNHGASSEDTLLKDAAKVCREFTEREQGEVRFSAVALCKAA
Sequence of Ubiquitin carboxyl-terminal hydrolase 7 (Q93009 whole entry): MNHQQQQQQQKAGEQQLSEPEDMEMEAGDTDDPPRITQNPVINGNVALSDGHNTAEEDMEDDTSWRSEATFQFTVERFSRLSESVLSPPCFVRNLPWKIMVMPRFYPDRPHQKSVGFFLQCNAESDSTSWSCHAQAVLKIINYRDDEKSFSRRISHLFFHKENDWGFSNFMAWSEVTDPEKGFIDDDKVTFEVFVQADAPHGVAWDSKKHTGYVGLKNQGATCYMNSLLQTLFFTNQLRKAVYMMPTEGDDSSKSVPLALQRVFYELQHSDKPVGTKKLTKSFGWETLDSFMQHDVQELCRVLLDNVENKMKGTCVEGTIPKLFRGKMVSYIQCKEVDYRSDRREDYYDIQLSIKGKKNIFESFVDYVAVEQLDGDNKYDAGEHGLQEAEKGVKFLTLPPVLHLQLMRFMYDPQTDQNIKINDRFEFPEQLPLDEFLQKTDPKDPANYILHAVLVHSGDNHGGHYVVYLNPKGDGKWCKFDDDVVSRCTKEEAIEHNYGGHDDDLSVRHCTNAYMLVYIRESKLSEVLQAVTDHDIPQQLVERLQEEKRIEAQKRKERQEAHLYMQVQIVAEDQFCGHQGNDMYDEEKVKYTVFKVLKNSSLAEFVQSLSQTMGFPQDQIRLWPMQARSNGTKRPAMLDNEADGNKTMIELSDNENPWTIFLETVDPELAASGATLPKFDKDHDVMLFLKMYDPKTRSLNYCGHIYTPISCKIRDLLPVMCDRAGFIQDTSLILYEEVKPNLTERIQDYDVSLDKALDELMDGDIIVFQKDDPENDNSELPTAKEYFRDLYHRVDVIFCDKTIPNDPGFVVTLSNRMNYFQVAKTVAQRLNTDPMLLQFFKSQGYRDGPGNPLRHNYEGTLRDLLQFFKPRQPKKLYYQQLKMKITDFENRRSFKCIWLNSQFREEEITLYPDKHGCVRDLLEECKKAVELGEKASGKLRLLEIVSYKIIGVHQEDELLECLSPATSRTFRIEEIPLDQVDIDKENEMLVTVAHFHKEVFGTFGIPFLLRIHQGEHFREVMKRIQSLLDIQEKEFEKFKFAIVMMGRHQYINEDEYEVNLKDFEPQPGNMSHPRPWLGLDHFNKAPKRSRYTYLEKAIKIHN

Compound	pKd [1]	also measured
O=C(O)CNC(=O)c1ccc(S(=O)(=O)N2CCC(c3ccccc3)C2)cc1 (stereo not drawn)	< 3.00	
Cn1cc(S(=O)(=O)N2CCC(c3ccccc3)CC2)cc1C(=O)NCC(=O)O	< 3.00	
O=C(O)CNC(=O)c1ccc(S(=O)(=O)N2CC(c3ccccc3)C2)cc1	< 3.00	
CN1CCC(NS(=O)(=O)c2ccc(C(=O)NCC(=O)O)cc2)CC1	< 3.00	
O=C(O)CNC(=O)c1ccc(S(=O)(=O)N2CCC(N3CCOCC3)CC2)cc1	< 3.00	
CN(C)C1CCN(S(=O)(=O)c2ccc(C(=O)NCC(=O)O)cc2)CC1	< 3.12	
CCC[C@H](NC(=O)/C(C#N)=C/c1cccc(Br)n1)c1ccccc1		inhibition [2]: 30%; inhibition [3]: 50%; inhibition [4]: 45%
O=C(O)CNC(=O)c1ccc(S(=O)(=O)N2CCC(c3ccc(Cl)cc3)CC2)cn1		remaining at 1 h, 1 µM [5]: > 90%; remaining at 1 h, 1 µM [6]: > 90%
N#CSc1cc(SC#N)c(N)nc1N		pEC50 [7]: 5.14; pEC50 [8]: 5.41; pEC50 [9]: 5.16; pEC50 [10]: 5.07; pEC50 [11]: 5.31

Second part, led by results:

pKd [1]	Compound	also measured
3.28	O=C(O)CNC(=O)c1ccc(S(=O)(=O)N2CCC(N3CCCC3)CC2)cc1	
3.43	CN1CCN(C2CCN(S(=O)(=O)c3ccc(C(=O)NCC(=O)O)cc3)CC2)CC1	
3.80	Cc1cc(S(=O)(=O)N2CCC(c3ccccc3)CC2)ccc1C(=O)NCC(=O)O	
< 3.32	O=C(O)CNC(=O)c1ccc(S(=O)(=O)N2CCN(c3ccccc3)CC2)cc1	
3.82	O=C(O)CNC(=O)c1ccc(S(=O)(=O)N2CCC(c3ccccc3)CC2)cc1Cl	
3.39	CN1CCC2(CC1)CCN(S(=O)(=O)c1ccc(C(=O)NCC(=O)O)cc1)CC2	
< 3.19	O=C(O)CNC(=O)c1ccc(S(=O)(=O)N2CCCC(c3ccccc3)CC2)cc1 (stereo not drawn)	
< 3.36	O=C(O)CNC(=O)c1cccc(S(=O)(=O)N2CCC(c3ccccc3)CC2)c1	
< 3.32	O=C(O)CNC(=O)c1ccc(S(=O)(=O)N2Cc3ccccc3C2)cc1	
3.54	O=C(O)CNC(=O)c1ccc(S(=O)(=O)N2CCc3ccccc3C2)cc1	
3.36	O=C(O)CNC(=O)c1ccc(S(=O)(=O)N2CCC3(CC2)OCc2ccccc23)cc1	
3.47	O=C(O)CNC(=O)c1ccc(S(=O)(=O)N2CC=C(c3ccccc3)CC2)cc1	
